Test results published in US20110123617A1, “CLIOQUINOL FOR THE TREATMENT OF HEMATOLOGICAL MALIGNANCIES” (priority 2007, published 2011).

Assays:
[1] = tested on: chymotrypsin-like activity of the proteasome; experiment: Proteasome activity after treatment of intact cell lines; assay type: cell-based; conditions: intact leukemia and myeloma cell lines
Procedure: A) Proteasome activity of MDAY-D2 and JJN3 cellular extracts after two hours of treatment with clioquinol (CQ), CuCl2 (Cu), or an equimolar concentration of CQ and Cu. After treatment, the preferential chymotrypsin-like substrate Suc-LLVY-AMC was added and the rate of free AMC was measured over time with a florescent spectrophotometric plate reader (excitation=380 nm, emission=460 nm). B) Proteasome activity of intact MDAY-D2 and JJN3 cells after two hours of treatment with clioquinol (CQ), CuCl2 (Cu), or an equimolar concentration of CQ and Cu. After treatment, the preferential chymotrypsin-like substrate Suc-LLVY-AMC was added and the rate of free AMC was measured over time with a florescent spectrophotometric plate reader (excitation=380 nm, emission=460 nm). Cellular proteins were extracted from cells with lysis buffer (50 mM HEPES pH 7.5, 150 mM NaCl, 2 mM ATP, and 1% Triton X-100). The chymotrypsin-like activity of the proteasome was measured by incubating equal amounts of protein with the preferential chymotrypsin-like substrate Suc-LLVY-AMC in assay buffer (50 mM Tris-HCl, pH 7.5, 150 mM NaCl) for two hours. After incubation, […] and the rate of free AMC was measured over time with a florescent spectrophotometric plate reader (excitation=380 nm, emission=460 nm). […]

[2] = tested on: chymotrypsin-like activity of the proteasome; experiment: Proteasome activity in cell lysates (Suc-LLVY-AMC cleavage); assay type: biochemical; conditions: cell lysates from leukemia and myeloma cell lines
Procedure: A) Proteasome activity of MDAY-D2 and JJN3 cellular extracts after two hours of treatment with clioquinol (CQ), CuCl2 (Cu), or an equimolar concentration of CQ and Cu. After treatment, the preferential chymotrypsin-like substrate Suc-LLVY-AMC was added and the rate of free AMC was measured over time with a florescent spectrophotometric plate reader (excitation=380 nm, emission=460 nm). B) Proteasome activity of intact MDAY-D2 and JJN3 cells after two hours of treatment with clioquinol (CQ), CuCl2 (Cu), or an equimolar concentration of CQ and Cu. After treatment, the preferential chymotrypsin-like substrate Suc-LLVY-AMC was added and the rate of free AMC was measured over time with a florescent spectrophotometric plate reader (excitation=380 nm, emission=460 nm). […] The chymotrypsin-like activity of the proteasome was measured by incubating equal amounts of protein with the preferential chymotrypsin-like substrate Suc-LLVY-AMC in assay buffer (50 mM Tris-HCl, pH 7.5, 150 mM NaCl) for two hours. After incubation, […] and the rate of free AMC was measured over time with a florescent spectrophotometric plate reader (excitation=380 nm, emission=460 nm). […] The chymotrypsin-like activity of the proteasome was measured by monitoring the rate of cleavage of the fluorescent substrate Suc-LLVY-AMC.

SMILES: [Cl][Cu][Cl] [copper, CuCl2]
- chymotrypsin-like activity of the proteasome [1]: no effect on the function of proteasome
- rate of Suc-LLVY-AMC cleavage [2]: inhibited the rate of Suc-LLVY-AMC cleavage
